# Laboratory results published in ChEMBL document CHEMBL3612057, “Discovery of indolizines containing triazine moiety as new leads for the development of antitumoral agents targeting mitotic events” (2015).
# Calls of active or inactive are those of the source. The rule behind the calls is not given here.
# Columns and labels:
# [1] = test system: UACC-62; assay: Cytotoxicity against human UACC62 cells assessed as growth inhibition at 10 uM after 24 hrs by SRB assay; format: functional; details: UACC-62, 24 h, read-out: GI
# [2] = test system: HOP-92; assay: Cytotoxicity against human HOP92 cells assessed as growth inhibition at 10 uM after 24 hrs by SRB assay; format: functional; details: HOP-92, 24 h, read-out: GI
# [3] = test system: OVCAR-3; assay: Cytotoxicity against human OVCAR3 cells assessed as growth inhibition at 10 uM after 24 hrs by SRB assay; format: functional; details: OVCAR-3, 24 h, read-out: GI
# [4] = test system: NCI-H226; assay: Cytotoxicity against human NCI-H226 cells assessed as growth inhibition at 10 uM after 24 hrs by SRB assay; format: functional; details: NCI-H226, 24 h, read-out: GI
# [5] = test system: A549; assay: Cytotoxicity against human A549 cells assessed as growth inhibition at 10 uM after 24 hrs by SRB assay; format: functional; details: A549, 24 h, read-out: GI
# [6] = test system: 786-0; assay: Cytotoxicity against human 786-0 cells after 48 hrs by SRB assay; format: functional; details: 786-0, 48 h
# [7] = test system: RPMI-8226; assay: Cytotoxicity against human RPMI8226 cells assessed as growth inhibition at 10 uM after 24 hrs by SRB assay; format: functional; details: RPMI-8226, 24 h, read-out: GI
# [8] = test system: HOP-62; assay: Cytotoxicity against human HOP62 cells assessed as growth inhibition at 10 uM after 24 hrs by SRB assay; format: functional; details: HOP-62, 24 h, read-out: GI
# [9] = test system: U-251; assay: Cytotoxicity against human U251 cells after 48 hrs by SRB assay; format: functional; details: U-251, 48 h
# [10] = test system: SK-MEL-28; assay: Cytotoxicity against human SK-MEL-28 cells after 48 hrs by SRB assay; format: functional; details: SK-MEL-28, 48 h
# [11] = test system: 786-0; assay: Cytotoxicity against human 786-0 cells assessed as growth inhibition at 10 uM after 24 hrs by SRB assay; format: functional; details: 786-0, 24 h, read-out: GI
# [12] = test system: HCT-116; assay: Cytotoxicity against human HCT116 cells assessed as growth inhibition at 10 uM after 24 hrs by SRB assay; format: functional; details: HCT-116, 24 h, read-out: GI
# [13] = test system: NCI-H460; assay: Cytotoxicity against human NCI-H460 cells assessed as growth inhibition at 10 uM after 24 hrs by SRB assay; format: functional; details: NCI-H460, 24 h, read-out: GI
# [14] = species on record: Ovis aries; assay: Inhibition of sheep tubulin polymerization at 100 uM by fluorescence assay
# [15] = test system: CCRF-CEM; assay: Cytotoxicity against human CCRF-CEM cells assessed as growth inhibition at 10 uM after 24 hrs by SRB assay; format: functional
# [16] = test system: SNB-75; assay: Cytotoxicity against human SNB75 cells assessed as growth inhibition at 10 uM after 24 hrs by SRB assay; format: functional; details: SNB-75, 24 h, read-out: GI
# [17] = test system: HOP-62; assay: Cytotoxicity against human HOP62 cells after 48 hrs by SRB assay; format: functional; details: HOP-62, 48 h
# [18] = test system: SR; assay: Cytotoxicity against human SR cells assessed as growth inhibition at 10 uM after 24 hrs by SRB assay; format: functional; details: read-out: GI
# [19] = test system: K562; assay: Cytotoxicity against human K562 cells assessed as growth inhibition at 10 uM after 24 hrs by SRB assay; format: functional; details: K562, 24 h, read-out: GI
# [20] = test system: HOP-92; assay: Cytotoxicity against human HOP92 cells after 48 hrs by SRB assay; format: functional; details: HOP-92, 48 h
# [21] = test system: TK-10; assay: Cytotoxicity against human TK10 cells after 48 hrs by SRB assay; format: functional; details: TK-10, 48 h
# [22] = test system: MDA-MB-231; assay: Cytotoxicity against human MDA-MB-231 cells assessed as growth inhibition at 10 uM after 24 hrs by SRB assay; format: functional; details: MDA-MB-231, 24 h, read-out: GI
# [23] = test system: DU-145; assay: Cytotoxicity against human DU145 cells after 48 hrs by SRB assay; format: functional; details: DU-145, 48 h
# [24] = test system: UACC-257; assay: Cytotoxicity against human UACC257 cells assessed as growth inhibition at 10 uM after 24 hrs by SRB assay; format: functional; details: UACC-257, 24 h, read-out: GI
# [25] = test system: PC-3; assay: Cytotoxicity against human PC3 cells assessed as growth inhibition at 10 uM after 24 hrs by SRB assay; format: functional; details: PC-3, 24 h, read-out: GI
# [26] = test system: RXF 393; assay: Cytotoxicity against human RXF393 cells assessed as growth inhibition at 10 uM after 24 hrs by SRB assay; format: functional; details: RXF 393, 24 h, read-out: GI
# [27] = test system: MDA-MB-435; assay: Cytotoxicity against human MDA-MB-435 cells assessed as growth inhibition at 10 uM after 24 hrs by SRB assay; format: functional; details: MDA-MB-435, 24 h, read-out: GI
# [28] = test system: NCI-H522; assay: Cytotoxicity against human NCI-H522 cells assessed as growth inhibition at 10 uM after 24 hrs by SRB assay; format: functional; details: NCI-H522, 24 h, read-out: GI
# [29] = test system: MCF7; assay: Cytotoxicity against human MCF7 cells assessed as growth inhibition at 10 uM after 24 hrs by SRB assay; format: functional; details: MCF7, 24 h, read-out: GI
# [30] = test system: U-251; assay: Cytotoxicity against human U251 cells assessed as growth inhibition at 10 uM after 24 hrs by SRB assay; format: functional; details: U-251, 24 h, read-out: GI
# [31] = test system: HL-60(TB); assay: Cytotoxicity against human HL-60(TB) cells assessed as growth inhibition at 10 uM after 24 hrs by SRB assay; format: functional; details: HL-60, 24 h, read-out: GI
# [32] = test system: SF-295; assay: Cytotoxicity against human SF295 cells assessed as growth inhibition at 10 uM after 24 hrs by SRB assay; format: functional; details: SF-295, 24 h, read-out: GI
# [33] = test system: Malme-3M; assay: Cytotoxicity against human MALME-3M cells assessed as growth inhibition at 10 uM after 24 hrs by SRB assay; format: functional; details: read-out: GI
# [34] = test system: OVCAR-4; assay: Cytotoxicity against human OVCAR4 cells assessed as growth inhibition at 10 uM after 24 hrs by SRB assay; format: functional; details: OVCAR-4, 24 h, read-out: GI
# [35] = test system: NCI/ADR-RES; assay: Cytotoxicity against human NCI/ADR-RES cells assessed as growth inhibition at 10 uM after 24 hrs by SRB assay; format: functional; details: read-out: GI
# [36] = test system: OVCAR-8; assay: Cytotoxicity against human OVCAR8 cells assessed as growth inhibition at 10 uM after 24 hrs by SRB assay; format: functional; details: OVCAR-8, 24 h, read-out: GI
# [37] = test system: T47D; assay: Cytotoxicity against human T47D cells assessed as growth inhibition at 10 uM after 24 hrs by SRB assay; format: functional; details: read-out: GI
# [38] = test system: MDA-MB-231; assay: Cytotoxicity against human MDA-MB-231 cells after 48 hrs by SRB assay; format: functional; details: MDA-MB-231, 48 h
# [39] = test system: SF-539; assay: Cytotoxicity against human SF539 cells assessed as growth inhibition at 10 uM after 24 hrs by SRB assay; format: functional; details: SF-539, 24 h, read-out: GI
# [40] = Cytotoxicity against human Hs578T cells assessed as growth inhibition at 10 uM after 24 hrs by SRB assay; format: functional; details: Hs-578T, read-out: GI
# [41] = test system: SK-MEL-5; assay: Cytotoxicity against human SK-MEL-5 cells assessed as growth inhibition at 10 uM after 24 hrs by SRB assay; format: functional; details: SK-MEL-5, 24 h, read-out: GI
# [42] = test system: SK-MEL-28; assay: Cytotoxicity against human SK-MEL-28 cells assessed as growth inhibition at 10 uM after 24 hrs by SRB assay; format: functional; details: SK-MEL-28, 24 h, read-out: GI
# [43] = test system: TK-10; assay: Cytotoxicity against human TK10 cells assessed as growth inhibition at 10 uM after 24 hrs by SRB assay; format: functional; details: TK-10, 24 h, read-out: GI
# [44] = test system: ACHN; assay: Cytotoxicity against human ACHN cells assessed as growth inhibition at 10 uM after 24 hrs by SRB assay; format: functional; details: read-out: GI
# [45] = test system: SNB-75; assay: Cytotoxicity against human SNB75 cells after 48 hrs by SRB assay; format: functional; details: SNB-75, 48 h
# [46] = test system: CAKI-1; assay: Cytotoxicity against human CAKI-1 cells assessed as growth inhibition at 10 uM after 24 hrs by SRB assay; format: functional; details: CAKI-1, 24 h, read-out: GI
# [47] = test system: SK-OV-3; assay: Cytotoxicity against human SKOV3 cells assessed as growth inhibition at 10 uM after 24 hrs by SRB assay; format: functional; details: SK-OV-3, 24 h, read-out: GI
# [48] = test system: RXF 393; assay: Cytotoxicity against human RXF393 cells after 48 hrs by SRB assay; format: functional; details: RXF 393, 48 h
smiles,measurement,setting,value
COc1nc(OC)nc(-c2cc(C(=O)c3ccc(Br)cc3)n3ccccc23)n1,inhibition of growth at 10 µM,[1],30%
same,inhibition of growth at 10 µM,[2],59%
same,inhibition of growth at 10 µM,[3],44%
same,inhibition of growth at 10 µM,[4],75%
same,inhibition of growth at 10 µM,[5],62%
same,GI50,[6],2.6 µM
same,inhibition of growth at 10 µM,[7],26%
same,inhibition of growth at 10 µM,[8],96%
same,GI50,[9],1.87 µM
same,GI50,[10],83.8 µM
same,inhibition of growth at 10 µM,[11],59%
same,inhibition of growth at 10 µM,[12],65%
same,inhibition of growth at 10 µM,[13],70%
same,inhibition,[14],inactive
same,growth inhibition (GI),[15],inactive
same,inhibition of growth at 10 µM,[16],-5%
same,GI50,[17],2.18 µM
same,inhibition of growth at 10 µM,[18],36%
same,inhibition of growth at 10 µM,[19],22%
same,GI50,[20],1.08 µM
same,GI50,[21],3.32 µM
same,inhibition of growth at 10 µM,[22],48%
same,GI50,[23],29.1 µM
same,inhibition of growth at 10 µM,[24],62%
same,inhibition of growth at 10 µM,[25],55%
same,inhibition of growth at 10 µM,[26],75%
same,inhibition of growth at 10 µM,[27],45%
same,inhibition of growth at 10 µM,[28],40%
same,inhibition of growth at 10 µM,[29],18%
same,inhibition of growth at 10 µM,[30],61%
same,inhibition of growth at 10 µM,[31],12%
same,inhibition of growth at 10 µM,[32],87%
same,inhibition of growth at 10 µM,[33],37%
same,inhibition of growth at 10 µM,[34],88%
same,inhibition of growth at 10 µM,[35],50%
same,inhibition of growth at 10 µM,[36],52%
same,inhibition of growth at 10 µM,[37],52%
same,GI50,[38],0.92 µM
same,inhibition of growth at 10 µM,[39],76%
same,inhibition of growth at 10 µM,[40],96%
same,inhibition of growth at 10 µM,[41],27%
same,inhibition of growth at 10 µM,[42],63%
same,inhibition of growth at 10 µM,[43],78%
same,inhibition of growth at 10 µM,[44],70%
same,GI50,[45],0.87 µM
same,inhibition of growth at 10 µM,[46],56%
same,inhibition of growth at 10 µM,[47],-11%
same,GI50,[48],4.74 µM
